Experimental data as given in patent publication US20210236445A1, “BACLOFEN AND ACAMPROSATE BASED THERAPY OF ALZHEIMER'S DISEASE IN PATIENTS HAVING LOST RESPONSIVENESS TO ACETYLCHOLINESTERASE INHIBITOR THERAPY” (priority 2018, published 2021).

Experiments:
[1] = system: patient's cognitive function; conditions: cited from earlier work
[2] = system: Aβ25-35-induced spontaneous alternation deficits in mice; experiment: Spontaneous alternation performance (Y-maze) in Aβ25-35 ICV-injected mice; format: in vivo, Swiss mice; conditions: for Effect on Aβ25-35-induced cognitive impairment, spontaneous alternation (Y-maze), after longer treatment / Effect on Aβ25-35-induced cognitive impairment, spontaneous alternation (Y-maze): Example A; for Effect on Aβ25-35-induced cognitive impairment, spontaneous alternation (Y-maze), after longer treatment: treatment alone from D20, tested D38 or D40; for Effect on Aβ25-35-induced cognitive impairment, spontaneous alternation (Y-maze): treatment alone per os from D20, eleven days, tested D30, donepezil 1 mg/Kg once a day or acamprosate/baclofen 0.2/3 mg/Kg twice a day
Description: (§1) Male Swiss mice were anesthetized 5 minutes with isoflurane 2.5%. At Day 01, animals were injected intracerebroventricularly (ICV) through a 28-gauge stainless-steel needle, 4 mm long. An injection volume of 3 μl was delivered gradually within 30 s and the needle left in place for an additional 30 s before being removed. […] Homogeneous preparation of the Aβ25-35 peptide were performed according to the AMYLGEN's own procedure.
(§2) All animals received a per os gavage using an inox steel cannula (5 mL/Kg). All the treatments were administered under a volume calculated according to the individual body weight of each mouse (5 mL/Kg). Vehicle and donepezil (1 mg/Kg) administration were done once a day, and the mix Acamprosate/baclofen twice a day (0.2 mg/Kg and 3 mg/Kg, respectively).
(§3) In a first set of experiments (FIG. 1A), the treatment, donepezil (1 mg/Kg), was started 19 days (D20) after icy injection for 21 days (D40) (group 3 and 4). At D30 one group of animals treated with donepezil was administered with acamprosate and baclofen (0.2 mg/Kg and 3 mg/Kg, respectively), in addition of donepezil treatment (group 4).
(§4) In a second set of experiments (FIG. 1B). The treatment, donepezil (1 mg/kg) (Group 5) or the combination acamprosate and baclofen (0.2 mg/Kg and 3 mg/Kg, respectively) (group 7), was started 19 days (D20) after icy injection and maintained for 23 days (D42) in two groups of animals. In a third group of animals (group 6), initially treated with donepezil, treatment with donepezil was stopped at D30 and replaced with administration of acamprosate and baclofen (0.2 mg/Kg and 3 mg/Kg, respectively) until D42.
(§5) Mice were tested for spontaneous alternation performance in the Y-maze, an index of spatial working memory. The Y-maze was designed according to Itoh et al.,1993 (57) and Hiramatsu and Inoue, 1999 (58), and is made of grey polyvinylchloride. Each arm is 40 cm long, 13 cm high, 3 cm wide at the bottom, 10 cm wide at the top, and converging at an equal angle. Each mouse was placed at the end of one arm and allowed to move freely through the maze during an 8 min session. The series of arm entries, including possible returns into the same arm, were checked visually by an experimenter blind to treatment. An alternation is defined as entries into all three arms on consecutive occasions. The number of maximum alternations were therefore the total number of arm entries minus two and the percentage of alternation as calculated as (actual alternations / maximum alternations)×100. Calculated parameters consisted in the percentage of alternation (memory index) and the total number of arm entries (exploration index) (52-56).
In the first set of experiments (FIG. 1A), animals were tested after the beginning of the treatment at D30 and D38. In the second set of experiments (FIG. 1B), animals were tested after the beginning of the treatment, at D30 and D40.
(§6) All animals received a per os gavage using an inox steel cannula. Vehicle or Donepezil (1 mg/kg) were administered at D8 until D17; or at D20 until D30 or at D20 to D40 once a day. All the treatments were administered under a volume calculated according to the individual body weight of each mouse (5 mL/Kg).
as §5, with “8min” for “8 min”, “occasions.” for “occasions. The number of maximum alternations were therefore the total number of arm entries minus two and the percentage of alternation as calculated as (actual alternations / maximum alternations)×100. Calculated parameters consisted in the percentage of alternation (memory index) and the total number of arm entries (exploration index) (52-56).”

[3] = system: Aβ25-35-induced step-through passive avoidance deficits in mice; experiment: Step-through passive avoidance test (STPA) in Aβ25-35 ICV-injected mice; format: in vivo, Swiss mice
Description: as §1, §2, §3, §4
The guillotine door was initially closed during the training session. Each mouse was placed into the white compartment. After 5 s, the door was raised. […] The retention test was carried out 24 h after training. Each mouse was placed again into the white compartment. After 5 s, the door was raised.
as §6

[4] = system: Aβ25-35-induced spontaneous alternation deficits in mice; experiment: Spontaneous alternation performance (Y-maze) in Aβ25-35 ICV-injected mice; format: in vivo, Swiss mice; conditions: Example C

For `CCN(C)C(=O)Oc1cccc([C@H](C)N(C)C)c1` [rivastigmine], the “Efficacy over time in Alzheimer's patients” value ([1]; compared with donepezil studies) is listed as “limited efficacy”.
With `COc1cc2c(cc1OC)C(=O)C(CC1CCN(Cc3ccccc3)CC1)C2` (stereo not drawn) [donepezil] the “Effect on Aβ25-35-induced cognitive impairment, spontaneous alternation (Y-maze), after longer treatment” value [2] was “totally lost”, the “Effect on Aβ25-35-induced cognitive impairment, spontaneous alternation (Y-maze), after longer treatment” value ([2]; listed as DNPz) was “not sustained” and the “Effect on Aβ25-35-induced cognitive impairment, spontaneous alternation (Y-maze)” value [2] was “partially alleviated”. For the same compound, the “Effect on Aβ25-35-induced cognitive impairment, spontaneous alternation (Y-maze)” value ([2]; listed as DNPz) was “partial activity”, the “Percentage drug effect in Y-maze at D30” value ([2]; Example B, 1 mg/Kg D20 until D40, tested at D30) was 43% and the “Percentage drug effect in Y-maze at D38” value ([2]; Example B, 1 mg/Kg D20 until D40, tested at D38, not statistically significant) was 25%. The “Recovery of Aβ25-35-induced cognitive impairment assessed by Y-maze” value ([2]; Example B, 1 mg/Kg per os once a day started at D08 (to D17), tested D15) was “fully recover”, the “Activity in Y-maze, % of optimal activity” value ([2]; Example B, 1 mg/kg administered D20 to D30, tested D28) was 44% and the “Time after initiation of treatment at which cognitive function reaches its baseline level” value ([1]; Alzheimer's patients) was 30 weeks. The “Period during which treatment improved the patient's cognitive function” value ([1]; Alzheimer's patients, from initiation of treatment) was 12 weeks, the “Effect on long-term memory, passive avoidance (step-through latency and escape latency)” value ([3]; Example A, treatment alone D20 to D40 or D42, tested D39-40 or D41-42) was “partially restored long-term memory” and the “Recovery of Aβ25-35-induced cognitive impairment assessed by passive avoidance test” value ([3]; Example B, 1 mg/Kg started at D08 (to D17), tested D16-17) was “fully recover”. The “Activity in passive avoidance test” value ([3]; Example B, 1 mg/kg administered D20 to D30, tested D29-30) was “partially active”, the “Fear conditioning memory assessed by STPA at D99/D100” value ([3]; Example C, end of experiment, treatment until D100) was “altered” and the “% of alternation in Y-maze at D42” value ([4]; 1 mg/Kg from D7, at D42) was 47%. For the same compound, the “Difference of Y-maze effect from Sc.Aβ-vehicle animals” value ([4]; 1 mg/Kg from D7, between D21 and D28) was “not significantly different” and the “Y-maze activity after D48 until D100” value ([4]; donepezil 1 mg/Kg only, D7 to D100) was “inactivity was sustained”.
